Among the data in ChEMBL document CHEMBL1140414, “Molecular modeling, synthesis, and preliminary biological evaluation of glutathione-S-transferase inhibitors as potential therapeutic agents” (J Med Chem, 2005) are IC50 and Ki values, retold here.

By IC50 is commonly meant the concentration at which inhibition is half-maximal. Read a low IC50 as greater potency. In general, Ki refers to a dissociation constant, usually derived from enzyme kinetics or from competition with a known ligand.

Experiment [1] deals with T1, Glutathione S-transferase P (Homo sapiens, UniProt P09211). Kind of experiment: Inhibition against glutathione S-transferase pi using GSH (0.1-3mM), 1 mM 1-chloro-2,4-dinitrobenzene.
T1 sequence (P09211 whole entry): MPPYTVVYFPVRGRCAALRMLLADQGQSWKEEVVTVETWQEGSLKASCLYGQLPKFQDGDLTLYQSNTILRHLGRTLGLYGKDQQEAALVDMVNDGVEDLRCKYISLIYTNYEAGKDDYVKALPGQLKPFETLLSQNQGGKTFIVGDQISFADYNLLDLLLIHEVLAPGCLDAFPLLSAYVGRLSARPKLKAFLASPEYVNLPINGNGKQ
Experiment [2] addresses T1, Glutathione S-transferase P. Kind of experiment: Inhibition constant against glutathione S-transferase pi using GSH (0.1-3mM), 1 mM 1-chloro-2,4-dinitrobenzene.

Consider `NC(CCC(=O)NC(CSCCO)C(=O)NCC(=O)O)C(=O)O` (stereo not drawn), for which, in experiment [1], the half-maximal inhibitory concentration (IC50) was found to be 280 µM. For the same compound, the affinity in experiment [2] corresponds to a Ki of 187 µM.
As to `NC(CCC(=O)NC(CSC(C(=O)O)c1ccccc1)C(=O)NCC(=O)O)C(=O)O` (stereo not drawn), it took 5.5 µM to reach half-maximal inhibition in experiment [1] (IC50). The compound also gave a Ki in experiment [2] of 0.66 µM.
The matching figures for `NC(CCC(=O)NC(CSC(CO)c1ccccc1)C(=O)NCC(=O)O)C(=O)O` (stereo not drawn): 9 µM and 1.11 µM.
The matching figures for `NC(CCC(=O)NC(CSCC(O)c1ccccc1)C(=O)NCC(=O)O)C(=O)O` (stereo not drawn): 4.7 µM and 0.49 µM.
